According to ChEMBL document CHEMBL1201862, “PubChem BioAssay data set” (2004):
Activity calls are given as the source filed them.

Assays:
[1] = biological target: T1, Alkaline phosphatase, tissue-nonspecific isozyme (Homo sapiens, UniProt P05186); experiment: human TNAP enzyme inhibitors, SAR follow-up, biochemical, luminescent, dose response (AID 1056)
T1 sequence (P05186 whole entry): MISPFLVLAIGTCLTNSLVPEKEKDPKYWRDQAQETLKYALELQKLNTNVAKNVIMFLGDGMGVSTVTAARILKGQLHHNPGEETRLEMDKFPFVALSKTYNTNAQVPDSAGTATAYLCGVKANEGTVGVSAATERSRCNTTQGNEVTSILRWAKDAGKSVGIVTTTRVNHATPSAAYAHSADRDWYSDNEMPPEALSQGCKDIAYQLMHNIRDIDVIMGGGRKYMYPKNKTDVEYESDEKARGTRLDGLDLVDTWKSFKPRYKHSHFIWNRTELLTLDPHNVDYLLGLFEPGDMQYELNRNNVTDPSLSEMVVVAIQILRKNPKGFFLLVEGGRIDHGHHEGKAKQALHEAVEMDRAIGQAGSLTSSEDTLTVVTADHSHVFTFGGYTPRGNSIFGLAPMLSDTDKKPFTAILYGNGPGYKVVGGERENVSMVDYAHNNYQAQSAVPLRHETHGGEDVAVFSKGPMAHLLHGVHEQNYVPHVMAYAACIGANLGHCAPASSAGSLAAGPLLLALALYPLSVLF

[2] = biological target: T2, G-protein coupled receptor 55 (Homo sapiens, UniProt Q9Y2T6); experiment: GPR55 antagonists blocking LPI-driven arrestin recruitment, primary screen, imaging, U2OS, beta-arrestin-GFP, LPI agonist (AID 2013); format: functional;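 also: antagonist potency measured as reduced agonist-driven arrestin aggregation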
T2 sequence (Q9Y2T6 whole entry): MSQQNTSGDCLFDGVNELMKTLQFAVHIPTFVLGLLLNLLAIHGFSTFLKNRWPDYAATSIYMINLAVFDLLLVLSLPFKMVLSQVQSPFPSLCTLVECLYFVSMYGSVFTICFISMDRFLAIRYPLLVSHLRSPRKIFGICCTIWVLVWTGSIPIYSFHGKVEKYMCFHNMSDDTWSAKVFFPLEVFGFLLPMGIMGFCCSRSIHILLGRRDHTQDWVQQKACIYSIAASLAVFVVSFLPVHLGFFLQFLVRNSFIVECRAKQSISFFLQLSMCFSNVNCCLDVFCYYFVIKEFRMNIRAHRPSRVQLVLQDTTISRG

[3] = biological target: T2, G-protein coupled receptor 55; experiment: SAR analysis of selective Agonists of GPR55 using an Image-Based Assay. [Related pubchem assays (depositor defined):AID1961, AID1965]; format: functional
[4] = biological target: Cannabinoid receptor 1 (Homo sapiens, UniProt P21554); experiment: SAR analysis of antagonists of the Cannabinoid Receptor 1 using an Image-Based Assay. [Related pubchem assays (depositor defined):AID1961, AID1965]; format: functional
Chain of Cannabinoid receptor 1 (P21554 whole entry): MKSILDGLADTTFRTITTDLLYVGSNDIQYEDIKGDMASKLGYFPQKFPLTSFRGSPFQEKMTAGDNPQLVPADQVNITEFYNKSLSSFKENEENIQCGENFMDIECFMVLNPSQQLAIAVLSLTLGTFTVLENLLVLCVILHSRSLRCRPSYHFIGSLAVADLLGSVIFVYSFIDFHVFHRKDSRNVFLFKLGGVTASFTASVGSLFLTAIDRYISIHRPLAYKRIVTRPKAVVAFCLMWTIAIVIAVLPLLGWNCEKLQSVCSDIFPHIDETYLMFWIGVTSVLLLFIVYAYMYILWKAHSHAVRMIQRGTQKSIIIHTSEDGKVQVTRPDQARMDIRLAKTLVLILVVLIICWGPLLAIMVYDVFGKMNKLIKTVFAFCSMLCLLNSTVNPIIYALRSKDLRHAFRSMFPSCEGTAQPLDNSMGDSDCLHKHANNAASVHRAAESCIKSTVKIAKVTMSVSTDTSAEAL

[5] = biological target: T3, Cannabinoid receptor 2 (Homo sapiens, UniProt P34972); experiment: SAR analysis of agonists of the Cannabinoid Receptor 2 using an Image-Based Assay - Set 2. [Related pubchem assays (depositor defined):AID1961, AID1965]; format: functional
T3 sequence (P34972 whole entry): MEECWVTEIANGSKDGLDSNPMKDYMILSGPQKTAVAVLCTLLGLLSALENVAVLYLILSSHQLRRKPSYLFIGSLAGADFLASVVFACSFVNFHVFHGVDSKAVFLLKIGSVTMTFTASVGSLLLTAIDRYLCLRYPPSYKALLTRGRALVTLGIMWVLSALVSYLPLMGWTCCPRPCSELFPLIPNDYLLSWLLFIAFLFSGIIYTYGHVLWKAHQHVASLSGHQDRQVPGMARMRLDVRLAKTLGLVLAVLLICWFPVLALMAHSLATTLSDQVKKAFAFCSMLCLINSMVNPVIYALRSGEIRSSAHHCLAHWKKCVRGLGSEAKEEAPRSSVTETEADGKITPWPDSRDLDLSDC

[6] = biological target: T3, Cannabinoid receptor 2; experiment: SAR analysis of antagonists of the Cannabinoid Receptor 2 using an Image-Based Assay - Set 2. [Related pubchem assays (depositor defined):AID1961, AID1965]; format: functional
[7] = biological target: T2, G-protein coupled receptor 55; experiment: GPR55 agonists via beta-arrestin recruitment, primary screen, imaging, U2OS cells, beta-arrestin-GFP redistribution (AID 1961); format: functional
[8] = biological target: Cytochrome P450 3A4 (Homo sapiens, UniProt P08684);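 also: CYP3A4 tested as one member of a cytochrome P450 panel screen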
Chain of Cytochrome P450 3A4 (P08684 whole entry): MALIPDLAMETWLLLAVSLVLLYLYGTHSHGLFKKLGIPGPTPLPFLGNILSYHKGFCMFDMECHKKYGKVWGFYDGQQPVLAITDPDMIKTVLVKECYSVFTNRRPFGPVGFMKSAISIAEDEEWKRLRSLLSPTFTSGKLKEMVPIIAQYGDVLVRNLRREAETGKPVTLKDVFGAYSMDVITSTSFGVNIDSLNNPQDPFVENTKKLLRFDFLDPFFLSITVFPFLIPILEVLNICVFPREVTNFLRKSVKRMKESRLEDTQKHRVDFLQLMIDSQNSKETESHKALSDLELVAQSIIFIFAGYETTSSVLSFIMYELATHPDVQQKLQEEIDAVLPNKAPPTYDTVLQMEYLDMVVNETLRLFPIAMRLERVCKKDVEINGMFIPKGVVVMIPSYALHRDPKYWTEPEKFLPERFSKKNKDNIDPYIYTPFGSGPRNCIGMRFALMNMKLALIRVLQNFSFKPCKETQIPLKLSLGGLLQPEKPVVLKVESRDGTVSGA

[9] = Luminescence Cell-Based Dose Retest to Confirm Inhibitors of Cancer Stem Cells. [Related pubchem assays (depositor defined):AID2717, AID2721]; format: functional; settings: Homo sapiens
[10] = test system: A-375; experiment: A375 melanoma cell viability reduction, dose response, counter-screen for MITF modulator project, cherry-pick samples, set 2 (AID 540335); format: functional, cell-based; settings: Homo sapiens
[11] = cytotoxicity toward DRD oncogenic fibroblasts, dose response, cell-based, non-viral oncogenic, luminescence (AID 1934); format: functional; settings: Homo sapiens
[12] = test system: BJ; experiment: cytotoxicity toward BJ-TERT fibroblasts, dose response, cell-based, RAS-independent, luminescence (AID 1933); format: functional; settings: Homo sapiens
[13] = test system: BJ; experiment: cytotoxicity toward BJ-TERT-LT-ST fibroblasts, dose response, cell-based, RAS-independent, luminescence (AID 1935); format: functional; settings: Homo sapiens;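 also: BJ fibroblasts immortalized with TERT plus LT and ST oncogenes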
[14] = biological target: T4, Heat shock factor protein 1 (Mus musculus, UniProt P38532); experiment: inhibition of MG132-induced HSE-luciferase signal, confirmation, cell-based, NIH3T3, luminescence, dose retest (AID 2382); format: functional;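 also: NIH3T3 fibroblasts with HSF1-driven luciferase reporter stressed by proteasome inhibitor MG132; luminescence from HSF1-driven luciferase expression after 8 hours of MG132 stress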
T4 sequence (P38532 whole entry): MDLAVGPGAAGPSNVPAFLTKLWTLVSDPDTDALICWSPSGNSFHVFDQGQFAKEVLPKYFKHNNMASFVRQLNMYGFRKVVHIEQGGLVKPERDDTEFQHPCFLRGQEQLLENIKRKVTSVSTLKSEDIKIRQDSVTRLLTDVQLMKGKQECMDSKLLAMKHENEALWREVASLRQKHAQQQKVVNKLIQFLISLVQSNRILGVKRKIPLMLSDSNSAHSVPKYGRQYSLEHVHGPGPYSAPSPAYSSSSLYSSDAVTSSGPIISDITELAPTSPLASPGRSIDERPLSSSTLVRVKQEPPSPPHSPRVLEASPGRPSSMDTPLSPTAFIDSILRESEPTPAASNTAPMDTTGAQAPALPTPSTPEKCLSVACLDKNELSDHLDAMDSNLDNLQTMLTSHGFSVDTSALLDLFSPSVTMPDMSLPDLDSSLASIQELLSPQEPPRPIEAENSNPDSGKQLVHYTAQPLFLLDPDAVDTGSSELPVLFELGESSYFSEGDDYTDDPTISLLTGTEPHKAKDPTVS

[15] = biological target: T5, Microphthalmia-associated transcription factor (Homo sapiens, UniProt O75030); experiment: TRPM1 promoter luciferase signal decrease, dose response, MITF inhibitor project, cell-based, SK-MEL-5, cherry-picked, set 3 (AID 493073); format: functional
T5 sequence (O75030 whole entry): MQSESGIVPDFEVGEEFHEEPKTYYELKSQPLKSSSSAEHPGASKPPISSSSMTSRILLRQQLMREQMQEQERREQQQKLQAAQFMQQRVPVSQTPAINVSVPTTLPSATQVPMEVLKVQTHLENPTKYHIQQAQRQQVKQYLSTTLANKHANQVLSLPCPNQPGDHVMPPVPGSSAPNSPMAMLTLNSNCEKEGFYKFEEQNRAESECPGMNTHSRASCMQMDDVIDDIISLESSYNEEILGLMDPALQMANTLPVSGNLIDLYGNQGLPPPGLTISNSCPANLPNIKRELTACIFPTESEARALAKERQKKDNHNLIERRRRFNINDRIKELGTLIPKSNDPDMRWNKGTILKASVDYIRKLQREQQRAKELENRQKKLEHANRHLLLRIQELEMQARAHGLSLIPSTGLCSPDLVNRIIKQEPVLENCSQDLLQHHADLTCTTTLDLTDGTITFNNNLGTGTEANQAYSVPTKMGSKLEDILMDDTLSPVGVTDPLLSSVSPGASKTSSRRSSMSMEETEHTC

[16] = test system: BJ; experiment: cells; format: functional, cell-based; settings: Homo sapiens
[17] = biological target: Troponin, cardiac muscle (Homo sapiens, UniProt P19429+P45379+P63316); experiment: Fluorescence-based biochemical high throughput dose response assay for activators of the calcium sensitivity of cardiac Regulated Thin Filaments (RTF). [Related pubchem assays (depositor defined):AID493008, AID493018, AID504382, AID504383]; format: protein-complex assay
[18] = cells
[19] = test system: Streptococcus; experiment: Group A Streptococcus viability loss, dose response, counter-screen for streptokinase expression inhibitor project, luminescence, BacTiterGlo (AID 1915); format: functional, organism-based;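 also: potency for reduction of bacterial viability or growth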
[20] = test system: Streptococcus sp. 'group A'; experiment: growth inhibition of control SK(-) GAS strain, dose response, counter-screen for streptokinase expression inhibitor project, luminescence, kanamycin, BacTiterGlo, confirmation (AID 1900); format: functional, organism-based
[21] = (§1) Counterscreen for antagonists of the orexin 1 receptor (OX1R; HCRTR1): Fluorescence-based cell-based high throughput dose response assay to identify antagonists of the parental CHO cell line. [Related pubchem assays (depositor defined):AID434989, AID435008, AID463079, AID485270, AID492963, AID492964, AID492965, AID493232, AID504699, AID504701]; format: functional
[22] = test system: CHO-K1; experiment: as §1, with “Homogeneous time resolved fluorescence (HTRF)-based” for “Fluorescence-based”, “cell-based” for “cell-based high throughput”, “CHO-K1” for “CHO”; format: functional; settings: Cricetulus griseus;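 also: potency for inhibition of ATP-stimulated IP1 production as antagonists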
[23] = HEp-2 cell cytotoxicity, dose response, cytotoxicity control for RSV inhibitor project, HTS (AID 2410); format: functional; settings: human respiratory syncytial virus
[24] = biological target: T6, Orexin/Hypocretin receptor type 1 (Homo sapiens, UniProt O43613); experiment: (§2) Fluorescence-based cell-based high throughput dose response assay for antagonists of the orexin 1 receptor (OX1R; HCRTR1). [Related pubchem assays (depositor defined):AID434989, AID435008, AID463079, AID485270, AID492963, AID492964, AID492965, AID493232, AID504717, AID504718]; format: functional
T6 sequence (O43613 whole entry): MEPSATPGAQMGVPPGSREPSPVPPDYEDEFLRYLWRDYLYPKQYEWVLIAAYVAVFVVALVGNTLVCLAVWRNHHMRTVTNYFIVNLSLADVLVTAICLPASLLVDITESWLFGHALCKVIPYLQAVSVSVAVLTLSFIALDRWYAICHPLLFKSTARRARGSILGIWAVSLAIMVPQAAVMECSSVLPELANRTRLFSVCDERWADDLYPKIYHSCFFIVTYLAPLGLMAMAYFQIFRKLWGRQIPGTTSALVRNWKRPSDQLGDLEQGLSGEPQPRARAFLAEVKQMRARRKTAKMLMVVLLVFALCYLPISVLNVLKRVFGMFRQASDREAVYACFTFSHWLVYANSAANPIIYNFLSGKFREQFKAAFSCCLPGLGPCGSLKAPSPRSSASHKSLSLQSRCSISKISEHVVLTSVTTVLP

[25] = biological target: T6, Orexin/Hypocretin receptor type 1; experiment: as §2, with “Homogeneous Time Resolved Fluorescence (HTRF)-based” for “Fluorescence-based”; format: functional
[26] = biological target: Glyceraldehyde-3-phosphate dehydrogenase (Homo sapiens, UniProt P04406)
Chain of Glyceraldehyde-3-phosphate dehydrogenase (P04406 whole entry): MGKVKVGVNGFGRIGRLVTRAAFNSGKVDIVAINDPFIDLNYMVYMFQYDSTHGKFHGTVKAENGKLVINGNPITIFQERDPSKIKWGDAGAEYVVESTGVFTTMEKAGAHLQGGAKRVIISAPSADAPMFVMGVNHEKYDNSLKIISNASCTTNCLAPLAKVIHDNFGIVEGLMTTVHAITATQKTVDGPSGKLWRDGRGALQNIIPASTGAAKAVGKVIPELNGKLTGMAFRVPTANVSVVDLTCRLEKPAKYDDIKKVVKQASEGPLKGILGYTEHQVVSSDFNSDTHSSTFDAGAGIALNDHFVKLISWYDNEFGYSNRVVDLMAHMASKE

[27] = biological target: Beta-lactamase (Salmonella choleraesuis (strain SC-B67), UniProt Q5J463); experiment: Epi-absorbance-based counterscreen for selective VIM-2 inhibitors: dose response biochemical high throughput screening assay to identify inhibitors of TEM-1 serine-beta-lactamase.
Chain of Beta-lactamase (Salmonella choleraesuis (strain SC-B67), UniProt Q5J463) (Q5J463 whole entry): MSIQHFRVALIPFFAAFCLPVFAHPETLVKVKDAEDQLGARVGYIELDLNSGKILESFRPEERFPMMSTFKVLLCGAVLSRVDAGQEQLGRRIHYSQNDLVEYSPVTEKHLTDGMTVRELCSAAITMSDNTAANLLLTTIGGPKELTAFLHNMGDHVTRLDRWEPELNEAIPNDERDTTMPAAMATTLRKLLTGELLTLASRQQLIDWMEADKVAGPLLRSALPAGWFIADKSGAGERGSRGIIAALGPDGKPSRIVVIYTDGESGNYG

[28] = biological target: FAD-linked sulfhydryl oxidase ALR (Homo sapiens, UniProt P55789); experiment: inhibitors of human ALR sulfhydryl oxidase, dose response, biochemical, H2O2 detection, luminescence, cherry-pick (AID 493248)
Chain of FAD-linked sulfhydryl oxidase ALR (P55789 whole entry): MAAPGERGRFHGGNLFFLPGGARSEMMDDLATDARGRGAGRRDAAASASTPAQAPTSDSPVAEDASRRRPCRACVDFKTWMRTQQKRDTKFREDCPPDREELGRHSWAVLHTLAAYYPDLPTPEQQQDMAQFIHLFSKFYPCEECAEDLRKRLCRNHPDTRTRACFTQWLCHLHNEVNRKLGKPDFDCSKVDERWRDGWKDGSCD

[29] = biological target: DNA dC->dU-editing enzyme APOBEC-3A (Homo sapiens, UniProt P31941); experiment: APOBEC3A DNA deaminase inhibitors, dose response, biochemical (AID 504722); format: functional
Chain of DNA dC->dU-editing enzyme APOBEC-3A (P31941 whole entry): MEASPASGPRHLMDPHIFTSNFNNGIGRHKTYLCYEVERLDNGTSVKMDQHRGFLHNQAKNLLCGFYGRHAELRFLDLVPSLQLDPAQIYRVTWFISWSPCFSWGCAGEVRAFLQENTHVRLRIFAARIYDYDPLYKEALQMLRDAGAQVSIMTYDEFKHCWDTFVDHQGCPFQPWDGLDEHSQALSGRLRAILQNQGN

[30] = biological target: T7, Beta-lactamase (Pseudomonas aeruginosa, UniProt Q79MP6); experiment: […] counterscreen for selective VIM-2 inhibitors: dose response biochemical high throughput screening assay to identify inhibitors of IMP-1 metallo-beta-lactamase.
T7 sequence (Q79MP6 whole entry): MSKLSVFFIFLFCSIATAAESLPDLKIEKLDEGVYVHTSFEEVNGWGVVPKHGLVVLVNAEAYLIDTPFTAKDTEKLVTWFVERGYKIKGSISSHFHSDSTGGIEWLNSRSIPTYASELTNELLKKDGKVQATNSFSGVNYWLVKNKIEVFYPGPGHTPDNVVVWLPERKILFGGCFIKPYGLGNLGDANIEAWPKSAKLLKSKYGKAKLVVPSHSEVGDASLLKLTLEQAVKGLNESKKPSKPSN

[31] = biological target: T7, Beta-lactamase; experiment: IMP-1 metallo-beta-lactamase inhibitors, dose response, selectivity assay for VIM-2 inhibitor project, biochemical, epi-absorbance (AID 1920)
[32] = biological target: DNA dC->dU-editing enzyme APOBEC-3G (Homo sapiens, UniProt Q9HC16); experiment: Dose Response confirmation of small molecule APOBEC3G DNA Deaminase Inhibitors via a fluorescence-based single-stranded DNA deaminase assay. [Related pubchem assays (depositor defined):AID493012, AID493028]; format: functional
Chain of DNA dC->dU-editing enzyme APOBEC-3G (Q9HC16 whole entry): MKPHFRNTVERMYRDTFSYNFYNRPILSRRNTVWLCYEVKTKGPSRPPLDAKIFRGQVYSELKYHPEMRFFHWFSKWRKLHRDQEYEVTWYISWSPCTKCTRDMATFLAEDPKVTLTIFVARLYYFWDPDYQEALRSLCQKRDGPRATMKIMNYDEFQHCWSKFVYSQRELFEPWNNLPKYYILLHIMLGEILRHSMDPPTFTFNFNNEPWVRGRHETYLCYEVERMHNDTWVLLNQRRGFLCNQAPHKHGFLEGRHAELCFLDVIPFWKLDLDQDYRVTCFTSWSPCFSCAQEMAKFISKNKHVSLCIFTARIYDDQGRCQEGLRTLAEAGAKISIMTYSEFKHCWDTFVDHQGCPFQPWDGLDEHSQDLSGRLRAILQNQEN

CCOc1cc(C)c(C(C)C)cc1S(=O)(=O)Nc1cccnc1
IC50 [1]: 18.9 µM (active)

Cc1nn(C(C)(C)C)c(OC(=O)c2cccs2)c1Sc1ccccc1
IC50 [2]: 5.36 µM (active)

COc1ccc2c(c1)cc(C)c1nnc(SCC(=O)N(C)c3nc(-c4ccccc4)cs3)n12
EC50 [3]: > 32 µM (inactive)
IC50 [4]: > 32 µM (inactive)
EC50 [5]: > 32 µM (inactive)
IC50 [6]: > 32 µM (inactive)

COc1ccc2cc(C)c3nnc(SCC(=O)Nc4nc(-c5ccc(F)cc5)cs4)n3c2c1
EC50 [3]: 0.164 µM (active)
IC50 [4]: > 32 µM (inactive)
EC50 [5]: > 32 µM (inactive)
EC50 [7]: < 500 nM (active)
IC50 [6]: > 32 µM (inactive)

COC(=O)N1CCC2(CCN(Cc3nccs3)CC2)CC1
AC50 [8]: inconclusive

O=c1c2ccccc2nc2n1C1(CCCCC1)Cc1ccccc1-2
IC50 [2]: 2.41 µM (active)
AC50 [9]: 2.06 µM (active)

CCCCN1C=CC(=C2C(=O)c3ccccc3C2=O)C=C1
AC50 [10]: 20.6 µM (active)
EC50 [11]: 7.63 µM (active)
EC50 [12]: 6.03 µM (active)
EC50 [13]: > 150 µM (inconclusive)
EC50 [14]: 356 nM (active)
AC50 [15]: 921 nM (active)
EC50 [16]: 7.56 µM (active)

Cc1nnc(N/N=C/c2ccc(O)c([N+](=O)[O-])c2)nc1O
EC50 [17]: > 71.5 µM (inactive)

Cc1ccc(C(=O)c2c[nH]c(C(=O)NCCCN3CCOCC3)c2)cc1
AC50 [8]: inconclusive

O=C(O)c1ccc(N2C(=O)CC(SC(=NCc3ccc4c(c3)OCO4)Nc3ccc(F)cc3)C2=O)cc1 (centres undefined)
IC50 [18]: 23.9 µM (active)
EC50 [19]: 29 µM (active)
EC50 [20]: 4.89 µM (active)
IC50 [21]: 23.2 µM (inactive)
IC50 [22]: > 66.2 µM (inactive)
CC50 [23]: 32.4 µM (active)
IC50 [24]: 14.3 µM (inactive)
IC50 [25]: 24.5 µM (inactive)

Cc1cc(C)c(S(=O)(=O)Nc2ccc3ccccc3c2)c(C)c1
IC50 [1]: > 100 µM (inactive)
IC50 [26]: > 100 µM (not active)

S=c1[nH]nc(-c2ccco2)n1Cc1ccccc1
IC50 [27]: > 59.6 µM (inactive)
AC50 [28]: 7.95 µM (active)
IC50 [29]: > 100 µM (inactive)
IC50 [30]: > 59.6 µM (inactive)
IC50 [31]: > 59.6 µM (inactive)
IC50 [32]: 2.89 µM (active)
